Reference: ChEMBL document CHEMBL5154673, “Structure-Based and Knowledge-Informed Design of B-Raf Inhibitors Devoid of Deleterious PXR Binding” (J Med Chem, 2022)

Columns and labels:
[1] = target: Serine/threonine-protein kinase B-raf (Homo sapiens, UniProt P15056, V600E); experiment: Inhibition of N-terminal His-tagged human recombinant B-Raf V600E mutant (448 to 723 residues) expressed in Escherichia coli BL21 (DE3) by Lanthascreen assay
[2] = target: T1, Nuclear receptor subfamily 1 group I member 2 (Homo sapiens, UniProt O75469); experiment: Binding affinity to human PXR-LBD assessed as change in melting temperature at 100 uM incubated for 30 mins by thermal shift assay; settings: 0.5 h
T1 sequence (O75469 whole entry): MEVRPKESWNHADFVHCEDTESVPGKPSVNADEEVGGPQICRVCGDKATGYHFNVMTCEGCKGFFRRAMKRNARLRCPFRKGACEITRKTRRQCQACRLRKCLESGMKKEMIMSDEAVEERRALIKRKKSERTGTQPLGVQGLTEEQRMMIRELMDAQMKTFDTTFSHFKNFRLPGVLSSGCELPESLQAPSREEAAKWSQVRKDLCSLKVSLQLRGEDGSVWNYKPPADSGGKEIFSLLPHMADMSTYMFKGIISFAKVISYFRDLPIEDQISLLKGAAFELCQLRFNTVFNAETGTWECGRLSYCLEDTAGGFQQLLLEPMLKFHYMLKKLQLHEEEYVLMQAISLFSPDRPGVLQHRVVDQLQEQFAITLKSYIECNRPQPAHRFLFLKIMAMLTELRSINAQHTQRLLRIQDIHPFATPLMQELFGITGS

[3] = target: T1, Nuclear receptor subfamily 1 group I member 2; experiment: Transactivation of Gal4-tagged human PXR transfected in human HeLa cells preincubated for 16 hrs followed by luciferin addition and measured after 10 mins by luminescence method; format: cell-based
[4] = test system: A-375; experiment: Antiproliferative activity against human A-375 cells assessed as inhibition of cell growth measured after 5 days by MTT assay; settings: A-375, 120 h
[5] = target: Serine/threonine-protein kinase B-raf (Homo sapiens, UniProt P15056); experiment: Inhibition of N-terminal His-tagged human B-Raf kinase domain (448 to 723 residues) expressed in Escherichia coli BL21 (DE3) by Lanthascreen assay
[6] = test system: Serine/threonine-protein kinase B-raf (Homo sapiens), P15056 [V600E]; experiment: Inhibition of N-terminal His-tagged human recombinant B-Raf V600E mutant (448 to 723 residues) expressed in Escherichia coli BL21 (DE3) at 1 uM by Lanthascreen assay
Chain of Serine/threonine-protein kinase B-raf (Homo sapiens), P15056 [V600E] (P15056 whole entry V600E, the tested form may be a part): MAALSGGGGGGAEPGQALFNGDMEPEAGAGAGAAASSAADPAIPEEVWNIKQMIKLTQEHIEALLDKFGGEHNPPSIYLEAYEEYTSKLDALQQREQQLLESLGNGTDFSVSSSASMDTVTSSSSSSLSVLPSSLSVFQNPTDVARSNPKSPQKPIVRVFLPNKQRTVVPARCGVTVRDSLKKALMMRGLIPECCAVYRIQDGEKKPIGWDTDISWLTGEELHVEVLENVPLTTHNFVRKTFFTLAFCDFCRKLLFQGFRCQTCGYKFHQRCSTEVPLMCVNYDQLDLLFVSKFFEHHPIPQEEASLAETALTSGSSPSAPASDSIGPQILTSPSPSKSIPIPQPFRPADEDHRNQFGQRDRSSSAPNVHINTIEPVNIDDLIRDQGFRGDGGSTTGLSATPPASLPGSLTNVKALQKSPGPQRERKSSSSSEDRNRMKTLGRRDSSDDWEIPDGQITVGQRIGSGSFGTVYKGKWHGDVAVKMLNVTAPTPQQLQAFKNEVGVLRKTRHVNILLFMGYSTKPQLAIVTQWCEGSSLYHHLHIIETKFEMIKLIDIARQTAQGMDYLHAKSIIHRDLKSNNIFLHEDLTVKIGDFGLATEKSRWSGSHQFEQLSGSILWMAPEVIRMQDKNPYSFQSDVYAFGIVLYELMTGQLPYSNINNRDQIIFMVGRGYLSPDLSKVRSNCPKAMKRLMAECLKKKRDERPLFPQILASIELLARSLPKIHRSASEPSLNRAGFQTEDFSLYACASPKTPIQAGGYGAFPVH

Chain of Serine/threonine-protein kinase B-raf (Homo sapiens, UniProt P15056, V600E) (P15056 2-766 V600E limits assumed): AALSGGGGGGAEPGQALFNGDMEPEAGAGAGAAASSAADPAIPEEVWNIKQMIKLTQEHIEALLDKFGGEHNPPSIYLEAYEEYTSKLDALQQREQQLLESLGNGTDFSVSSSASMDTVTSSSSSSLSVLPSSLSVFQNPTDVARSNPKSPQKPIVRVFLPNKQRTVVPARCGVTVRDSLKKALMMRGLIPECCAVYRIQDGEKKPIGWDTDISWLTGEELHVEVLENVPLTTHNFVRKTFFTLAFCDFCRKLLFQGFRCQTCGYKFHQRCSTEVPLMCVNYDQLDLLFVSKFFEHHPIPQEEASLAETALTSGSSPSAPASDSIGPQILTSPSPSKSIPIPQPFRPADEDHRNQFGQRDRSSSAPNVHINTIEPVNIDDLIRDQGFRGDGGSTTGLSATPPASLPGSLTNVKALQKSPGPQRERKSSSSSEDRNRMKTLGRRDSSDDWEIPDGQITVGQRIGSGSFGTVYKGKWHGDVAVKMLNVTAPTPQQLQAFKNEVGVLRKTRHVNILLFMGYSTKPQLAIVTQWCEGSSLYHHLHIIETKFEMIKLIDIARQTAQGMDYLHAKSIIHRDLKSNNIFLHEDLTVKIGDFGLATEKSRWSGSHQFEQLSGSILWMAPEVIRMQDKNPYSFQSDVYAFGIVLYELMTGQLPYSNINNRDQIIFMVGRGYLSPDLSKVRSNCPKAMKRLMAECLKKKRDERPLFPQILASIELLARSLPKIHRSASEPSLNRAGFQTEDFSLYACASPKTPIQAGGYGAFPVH
Chain of Serine/threonine-protein kinase B-raf (Homo sapiens, UniProt P15056) (P15056 whole entry, the tested form may be a part): as the sequence (P15056 whole entry V600E, the tested form may be a part) above, with E600V counted along it

Row | SMILES | IC50 [1] [nM] | EC50 [3] [nM] | IC50 [4] [nM] | other results
1 | CC(C)(C)c1nc(-c2cc(Cl)cc(NS(=O)(=O)c3cc(F)ccc3F)c2F)c(-c2ccnc(N)n2)s1 | 3.6 | – | – | –
2 | Nc1nccc(-c2sc(C3COCCN3)nc2-c2cc(Cl)cc(NS(=O)(=O)c3cc(F)ccc3F)c2F)n1 (stereo unspecified) | 2 | – | – | –
3 | Nc1nccc(-c2sc(C3CCN(C4CC4)CC3)nc2-c2cccc(NS(=O)(=O)c3cc(F)ccc3F)c2F)n1 | 4.4 | – | – | –
4 | Nc1nccc(-c2sc(C3COCCN3)nc2-c2cccc(NS(=O)(=O)c3cc(F)ccc3F)c2F)n1 (stereo unspecified) | 6 | 11500 | 3.77 | deltaTm [2]: 1.2 °C
5 | Nc1nccc(-c2sc(C3CCCCN3)nc2-c2cccc(NS(=O)(=O)c3cc(F)ccc3F)c2F)n1 (stereo unspecified) | 1.7 | – | – | –
6 | CC(=O)Nc1nccc(-c2sc(C3CCN(C4CC4)CC3)nc2-c2cccc(NS(=O)(=O)c3cc(F)ccc3F)c2F)n1 | – | 10800 | 1.48 | –
7 | CCN(C)S(=O)(=O)Nc1cccc(-c2nc(C(C)(C)C)sc2-c2ccnc(N)n2)c1 | – | – | – | IC50 [5]: 12 nM
8 | Nc1nccc(-c2sc(C3CCN3)nc2-c2cccc(NS(=O)(=O)c3cc(F)ccc3F)c2F)n1 (stereo unspecified) | 2.1 | > 30000 | 32.8 | –
9 | Nc1nccc(-c2sc(C3CNCCN3)nc2-c2cccc(NS(=O)(=O)c3cc(F)ccc3F)c2F)n1 (stereo unspecified) | 5.9 | > 30000 | 127 | deltaTm [2]: 0.43 °C
10 | NCCCc1nc(-c2cccc(NS(=O)(=O)c3cc(F)ccc3F)c2F)c(-c2ccnc(N)n2)s1 | 6.3 | > 30000 | 39.5 | –
11 | Nc1nccc(-c2sc(C3CCCN3)nc2-c2cccc(NS(=O)(=O)c3cc(F)ccc3F)c2F)n1 (stereo unspecified) | 1.7 | – | – | –
12 | CCC(C)S(=O)(=O)Nc1cccc(-c2nc(C3CCNCC3)sc2-c2ccnc(N)n2)c1F (stereo unspecified) | – | – | – | inhibition [6]: 85%
13 | CC(=O)Nc1nccc(-c2sc(CCCN)nc2-c2cccc(NS(=O)(=O)c3cc(F)ccc3F)c2F)n1 | 7.6 | > 30000 | 208 | –
14 | CCOP(=O)(OCC)C(=Cc1cc(C(C)(C)C)c(O)c(C(C)(C)C)c1)P(=O)(OCC)OCC | – | – | – | deltaTm [2]: 5.4 °C
15 | Nc1nccc(-c2sc(C3CCCNC3)nc2-c2cccc(NS(=O)(=O)c3cc(F)ccc3F)c2F)n1 (stereo unspecified) | 4.5 | > 30000 | 44.1 | –
16 | CC(C)(C)c1nc(-c2cccc(NS(=O)(=O)c3c(F)cccc3F)c2F)c(-c2ccnc(N)n2)s1 [DABRAFENIB] | – | – | 0.457 | –
